Measured values taken from US8889902B2, “Acetylsalicylic acid salts” (priority 2009, dated 2014).

Tests used:
[1] = tested on: Wistar rats; settings: rats p.o., cited from earlier work
[2] = background statement; cited from earlier work
[3] = tested on: ICR mice; assay: Acute toxicity of MASA to mice p.o.; assay type: in vivo; settings: P = 0.05
Experimental: (§1) The acute toxicity of MASA was determined on Wistar rats and ICR mice by p.o. introduction.
(§2) Male IRC mice with body mass of 20-22 g and Wistar rats with body mass of 200-230 g were used. For determining the acute toxicity each dose was given to 6 animals, each next dose was increased by 500 mg/kg. LD50 was calculated after Karber by the method of Akhila J S et al, Current Sci 2007; 93:917-920 with modification for determining the dose confidence interval (Turner R In Screening Methods in Pharmacology, Acad. Press, New York, 1965, 61-63).
(§3) LD50 was calculated as follows: LD50=Least dose lethal to all in a group−Σ(a×b)/N N—number of animals in each group a—the dose difference b—the mean mortality (lethality in 2 neighbouring groups/2)
(§4) MASA was dissolved ex tempore in 0.2% agar-agar and introduced per os through catheter into stomach. […] Animals were observed till the Day 10 after introduction.

[4] = tested on: Wistar rats; assay: Acute toxicity of MASA to rats p.o.; assay type: in vivo; settings: P = 0.05
Experimental: as §1, §2, §3, §4

[5] = tested on: blood flow in the right ear artery; assay: Cutaneous vasodilatation caused by nicotinic acid, ear artery blood flow; assay type: in vivo, Wistar rats; settings: maximal change to baseline
Experimental: Model. […] Blood pressure was measured in left carotid artery, ECG recorded by standard II lead. […] Blood flow, ECG and arterial pressure were registered by AD Instruments PowerLab systems and stored in computer for further processing. […] The average blood flow data for each animal were calculated taking into account the average blood pressure and compared with initial and control. […] Statistics.

## CC(=O)Oc1ccccc1C(=O)O [ASA, acetylsalicylic acid]
[1]; given by Bayer AG
  LD50: > 1100 mg/kg
[1]; given by Boehringer Ingelheim, Acros Chemicals, Sigma-Aldrich
  Acute toxicity (LD50): 200 mg/kg
[2]
  solubility in water: about 0.3%

## CC(=O)Oc1ccccc1C(=O)[O-].C[N+](C)(C)NCCC(=O)O [MASA, 3-(trimethylammonioamino)propanoate Acetylsalicylic Acid Addition Salt]
[3]
  confidence interval for LD50: Factor f at P = 0.05 for this experiment is 1.32, therefore the confidence interval for LD50 is 1642-2860 (mg/kg).
[4]
  confidence interval for LD50: Factor f at P = 0.05 for this experiment is 1.308, therefore the confidence interval for LD50 is 1720 ÷ 2944 (mg/kg).
[5]; 45 mg/kg s.c.
  Changes in blood flow, %: 8.04 ± 2.02^$ %

## O=C(O)c1cccnc1 [NA, nicotinic acid]
[5]; 15 mg/kg s.c.
  Changes in blood flow, %: 55.75 ± 11.5 %
